“Also recorded” adds a separate entry of the source. Marks after values point to notes of the source that are not given here.
What was measured:
[1] = target: T1, RhlR (Pseudomonas aeruginosa, UniProt P54292); experiment: P. aeruginosa RhlR reporter agonism assay (PAO-JP2/prhlI-LVAgfp); type: cell-based; conditions: for Emax: read-out: Maximum Activation (%)
T1 construct: expressed in transfected cells; host or cells: E. coli JLD271 (ΔsdiA) with pJN105R2 (arabinose-induced) and pSC11-rhlI*

[2] = target: T1, RhlR; experiment: E. coli RhlR reporter antagonism assay vs 10 μM BHL (JLD271/pJN105R2/pSC11-rhlI*); type: cell-based, P. aeruginosa; conditions: for inhibition at 10 µM: read-out: % inhibition (10 μM), compound at 10 μM in the presence of 10 μM BHL; for inhibition at 1000 µM: read-out: % inhibition (1 mM), compound at 1 mM in the presence of 10 μM BHL; for RhlR antagonist activity in words: E. coli reporter vs 10 μM BHL
Description: (§1) All media and reagents for bacterial culture were purchased from commercial sources. Bacteria were cultured in Luria-Bertani broth (LB) at 37° C. with shaking at 200 rpm unless otherwise noted. The bacterial reporter strains used for this study were (i) the heterologous E. coli strain JLD271 (ΔsdiA) harboring the RhlR expression plasmid pJN105R2 and the rhlI-lacZ transcriptional fusion reporter pSC11-rhlI*, (ii) the heterologous E. coli strain JLD271 (ΔsdiA) harboring the LasR expression plasmid pJN105L and the […] transcriptional fusion reporter pSC11, and (iii) the P. aeruginosa strain PAO-JP2 (ΔlasrhlI) harboring the rhlI-gfp transcriptional fusion reporter prhlI-LVAgfp. Reporter strains JLD271/pJN105R2/pSC11-rhlI* and JLD271/pJN105L/pSC11 were grown in LB containing 100 μg/mL ampicillin and 10 μg/mL gentamicin. Freezer stocks of bacterial strains were maintained at −80° C. in 1:1 LB:50% glycerol.
To evaluate the modulatory activities of library compounds on RhlR and LasR using E. coli reporters, the strains JLD271/pJN105R2/pSC11-rhlI* and JLD271/pJN105L/pSC11 were used, respectively, as previously described.^38, 51 The following modifications were used in the RhlR agonism reporter assay, non-native compounds (10 μM or 1 mM) were compared to 1 mM BHL as the positive control. Briefly, a subculture was prepared by diluting an overnight culture 1:10 with fresh media containing 100 μg/mL ampicillin and 10 μg/mL gentamicin, and was incubated until it had grown to OD600=0.45. In all assays, L-arabinose was added to a final concentration of 4 mg/mL to induce RhlR expression. For RhlR agonism assays, activities of test compounds were measured relative to 1 mM BHL (the concentration required to induce a maximal level of RhlR activity). […] Activity was measured relative to 10 μM BHL. Inhibition was calculated by subtracting 100% from the relative activity value. Thus, 0% inhibition mimics represents no competitive displacement of 10 μM BHL by a test compound. In all assays, modifications were made to the standard Miller assay protocol to accommodate the use of the chlorophenol red-β-D-galactopyranoside (CPRG) β-galactosidase substrate. After cell lysis, 150 μL of the aqueous layer was transferred from each well of a solvent-resistant 96-well microtiter plate to the wells of a new clear, flat-bottom 96-well microtiter plate. CPRG (4 mg/mL in phosphate-buffered saline) was added to each well in 25 μL volumes. Plates were incubated at 30° C. until the positive control wells developed a red color (approximately 30 min). The amount of processed CPRG substrate was assessed by measuring the absorbance of each well at 570 nm. Enzymatic activity was calculated using the following equation: adjusted Miller units=1000·Abs570/(OD600·t·V),
(§2) where t is the incubation time of substrate with lysate and V is the volume of culture lysed.
The RhlR-modulatory activity of the J library compounds was assessed in a heterologous reporter strain (E. coli JLD271 harboring plasmids pJN105R2 and pSC11-rhlI*) in order to isolate the RhlR receptor from upstream QS regulation (e.g. regulation by LasR). Thus, the extent to which compounds were directly modulating RhlR could be determined. These assays were performed by incubating compound-treated, mid-log phase E. coli reporter cells in 96-well microtiter plates, followed by Miller assay evaluation of ß-galactosidase activity.
RhlR agonism and antagonism screens of each compound were performed initially at 10 μM.

[3] = target: T1, RhlR; experiment: E. coli RhlR reporter agonism assay (JLD271/pJN105R2/pSC11-rhlI*); type: cell-based, P. aeruginosa; conditions: for Emax: read-out: Maximum Activation (%); for RhlR agonist activity in words: single-concentration screen at 10 μM; for RhlR agonist potency in words: dose-response
Description: as §1
(§3) To evaluate the modulatory activities of library compounds on RhlR and LasR using E. coli reporters, the strains JLD271/pJN105R2/pSC11-rhlI* and JLD271/pJN105L/pSC11 were used, respectively, as previously described.^38, 51 The following modifications were used in the RhlR agonism reporter assay, non-native compounds (10 μM or 1 mM) were compared to 1 mM BHL as the positive control. Briefly, a subculture was prepared by diluting an overnight culture 1:10 with fresh media containing 100 μg/mL ampicillin and 10 μg/mL gentamicin, and was incubated until it had grown to OD600=0.45. In all assays, L-arabinose was added to a final concentration of 4 mg/mL to induce RhlR expression. For RhlR agonism assays, activities of test compounds were measured relative to 1 mM BHL (the concentration required to induce a maximal level of RhlR activity). For RhlR antagonism assays, test compounds were competed against a concentration of BHL approximately equal to its EC50 value (10 μM). Activity was measured relative to 10 μM BHL. Inhibition was calculated by subtracting 100% from the relative activity value. Thus, 0% inhibition mimics represents no competitive displacement of 10 μM BHL by a test compound. In all assays, modifications were made to the standard Miller assay protocol to accommodate the use of the chlorophenol red-β-D-galactopyranoside (CPRG) β-galactosidase substrate. After cell lysis, 150 μL of the aqueous layer was transferred from each well of a solvent-resistant 96-well microtiter plate to the wells of a new clear, flat-bottom 96-well microtiter plate. CPRG (4 mg/mL in phosphate-buffered saline) was added to each well in 25 μL volumes. Plates were incubated at 30° C. until the positive control wells developed a red color (approximately 30 min). The amount of processed CPRG substrate was assessed by measuring the absorbance of each well at 570 nm. Enzymatic activity was calculated using the following equation: adjusted Miller units=1000·Abs570/(OD600·t·V),
as §2
Because LuxR-type receptors are often unstable in solution, preventing the use of in vitro assays to directly assess small molecule agonism and antagonism, reporter gene assays represent a standard method for screening small-molecule libraries for LuxR-type receptor modulation. Previously reported strains for this purpose were used in the current study.^38 Synthetic N-butanoyl L-homoserine lactone (BHL), the native ligand of RhlR, was used as the positive control for receptor activation. Commonly, agonists are measured relative to maximum possible receptor activation within a particular assay medium;^40 because the dose-response curve of BHL is distinctly shallow in these RhlR reporters, a high concentration of BHL is required to maximally activate RhlR. In this study, activation of compounds was measured relative to that elicited by 1 mM BHL (the concentration of BHL used causes no aberrant growth effects in the reporter strain). […]

[4] = target: T2, LasR (Pseudomonas aeruginosa, UniProt P25084); experiment: Selectivity of RhlR agonism over LasR agonism (E. coli LasR reporter JLD271/pJN105L/pSC11); type: cell-based, P. aeruginosa; conditions: RhlR % activity divided by LasR % activity, > = negligible activity in LasR reporter
T2 construct: expressed in transfected cells; host or cells: E. coli JLD271 (ΔsdiA) with pJN105L and pSC11
T2 sequence (P25084 whole entry): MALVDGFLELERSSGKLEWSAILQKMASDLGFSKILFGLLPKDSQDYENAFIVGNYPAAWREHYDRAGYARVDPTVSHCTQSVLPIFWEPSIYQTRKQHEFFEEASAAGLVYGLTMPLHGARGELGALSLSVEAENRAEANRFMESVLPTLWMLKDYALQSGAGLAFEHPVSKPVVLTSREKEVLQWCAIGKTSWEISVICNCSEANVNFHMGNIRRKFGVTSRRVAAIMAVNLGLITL
Description: as §1, §3
LasR assays were processed using the protocol for the substrate ortho-nitrophenyl-β-galactoside (ONPG) as previously described elsewhere.^53; and LasR antagonism assays were performed versus the EC50 for OdDHL (2 nM).
The selectivity of certain compounds for RhlR over LasR was measured using a LasR reporter strain (details above). Table 6 provides a comparison of selectivity of RhlR agonism over LasR agonism for exemplary compounds. Table 7 provides a comparison of selectivity of RhlR antagonism over LasR antagonism for exemplary compounds.

[5] = negative = agonism stronger than 10 μM BHL alone
[6] = compound at 10 μM, RhlR activity relative to 1 mM BHL, E. coli reporter

T1 sequence (P54292 whole entry): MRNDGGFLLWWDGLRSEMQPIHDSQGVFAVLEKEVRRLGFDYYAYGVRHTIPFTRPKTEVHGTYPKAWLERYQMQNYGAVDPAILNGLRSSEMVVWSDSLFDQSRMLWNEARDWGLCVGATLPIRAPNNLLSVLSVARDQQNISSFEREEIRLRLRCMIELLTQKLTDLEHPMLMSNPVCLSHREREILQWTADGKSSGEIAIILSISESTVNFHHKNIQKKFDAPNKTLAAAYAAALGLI

Row | SMILES | EC50 [1] [µM] | Emax [1] [%] | inhibition at 10 µM [2, 5] [%] | inhibition at 1000 µM [2, 5] [%] | EC50 [3] [µM] | activation at 10 µM [3, 6] [%] | Emax [3] [%] | Fold selectivity of RhlR agonists over LasR agonism ([4]; tested concentration 1 mM) | Fold selectivity of RhlR agonists over LasR agonism ([4]; tested concentration 10 μm) | other results
1 | CCCC(=O)N[C@H]1CCSC1=O [RN8] | 14.3 | 94 | -8 | -75 | 4.87 | 71 | 102 | 4.5 fold | 17 fold | 
2 | CC(C)(C)C(=O)N[C@H]1CCOC1=O [Compound J20] |  |  | 0 | 25 |  | 1 |  |  |  | RhlR antagonist activity in words [2]: capable of inhibiting RhlR activity to a statistically significant extent; RhlR agonist activity in words ([3]; E. coli reporter): inactive as agonists
3 | CC(C)CC(=O)N[C@H]1CCOC1=O [Compound J18, isovaleryl HL] | 1.42 | 94 | -62 | -123 | 1.02 | 86 | 105 | >99^b fold | 255^ fold | fold more potent than the native ligand ([3]; E. coli reporter, EC50 vs BHL): ~10 fold; RhlR agonist potency in words ([3]; E. coli reporter): significantly more potent than BHL; RhlR agonist activity in words ([3]; E. coli reporter): comparable RhlR activation to that of BHL
4 | C=CCCCC(=O)N[C@H]1CCOC1=O [Compound J3] |  |  | -4 | -69 |  | 41 |  |  |  | 
5 | CCCCCCCCCC(=O)CC(=O)N[C@H]1CCOC1=O [OdDHL, N-(3-oxododecanoyl) HL, reference compound] |  |  |  |  |  |  |  |  |  | % inhibition (10 μM) ([2]; compound at 10 μM in the presence of 10 μM BHL, negative = agonism stronger than 10 μM BHL alone): 18%; % inhibition at 200 µM ([2]; screened at a maximal concentration of 200 microM (solubility), in the presence of 10 μM BHL): 53%; % activation [3, 6]: 5%
6 | CCCC(=O)NC1CCCC1 [RN4] |  |  | 9 | 45 |  | 0 |  |  |  | 
7 | CC(C)CC(=O)NC1CCCC1 [RN39] |  |  | 11 | 31 |  | 0 |  |  |  | 
8 | CCCC(=O)O[C@H]1CCOC1=O [RN7] |  |  | 4 | 6 |  | 0 |  |  |  | 
9 | O=C(COc1ccc(I)cc1)NCC1CCCO1 (stereo not shown) [RN23] |  |  | 6 | > 50 |  | 0 |  |  |  | IC50 [2]: > 100 µM; RhlR antagonist activity in words [2]: potent antagonist activity; also recorded: negligible maximum potency difference from its head group parent compound RN10; Maximum Inhibition (%) ([2]; E. coli reporter, relative to activation of 10 μM BHL alone): 56%
10 | O=C(N[C@H]1CCSC1=O)C1CCC1 [RN15] | 1.65 | 90 | -85 | -114 | 1.72 |  | 106 | 11 fold | >88^b fold | RhlR agonist potency in words ([3]; E. coli reporter): equipotent to the cyclobutanoic tail group parent, compound J24
11 | CCCC(=O)N[C@H]1CCOC1=O [BHL, N-butanoyl L-homoserine lactone, reference compound] | 8.08 | 100 |  |  | 8.95 | 51 | 100 | 18 fold | 56 fold | Hill slope of agonism dose-response ([3]; E. coli reporter): 0.7
12 | C#CCCCC(=O)N[C@H]1CCOC1=O [Compound J8] |  |  | -2 | -76 |  | 34 |  |  |  | 

Source: patent publication US11247976B2, “Synthetic ligands that modulate the activity of the RhlR quorum sensing receptor” (Wisconsin Alumni Research Foundation, priority 2016, dated 2022)
